# Data from ChEMBL document CHEMBL1201862, “PubChem BioAssay data set” (2004).
#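 1) Cells in 96-well plates. 2) Compound, 48 h, 5 concentrations. 3) Linear interpolation between surrounding doses. 4) Unreached endpoint = highest concentration. Abbreviation: GI50, concentration required for 50% inhibition of growth.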 Calls of active or inactive are those of the source. Rule as the data show it: active = GI50 up to about 1.1 µM and inactive = higher.
# Columns and labels:
# Assay in all cases: inhibition of tumour cell growth, NCI panel, 48 h
# [1] = system: M19-MEL
# [2] = system: NCI-H460
# [3] = system: UACC-257
# [4] = system: HOP-18
# [5] = system: RXF 393
# [6] = system: SNB-19
# [7] = system: TK-10
# [8] = system: UACC-62
# [9] = system: A498
# [10] = system: SF-268
# [11] = system: KM-20L2
# [12] = system: SK-MEL-28
# [13] = system: OVCAR-8
# [14] = system: SW-620
# [15] = system: SR
# [16] = system: M14
# [17] = system: HCT-116
# [18] = system: SF-539
# [19] = system: OVCAR-4
# [20] = system: COLO 205
# [21] = system: SNB-78
# [22] = system: MOLT-4
# [23] = system: DMS-273
# [24] = system: IGROV-1
# [25] = system: SN12C
# [26] = system: EKVX
# [27] = system: SNB-75
# [28] = system: HCC 2998
# [29] = system: UO-31
# [30] = system: NCI-H522
# [31] = system: ACHN
# [32] = system: SK-OV-3
# [33] = system: HCT-15
# [34] = system: HL-60
# [35] = system: HOP-62
# [36] = system: U-251
# [37] = system: Malme-3M
# [38] = system: 786-0
# [39] = system: LXFL 529
# [40] = system: DLD-1
# [41] = system: KM12
# [42] = system: A549
# [43] = system: CAKI-1
# [44] = system: DMS-114
# [45] = system: SK-MEL-2
# [46] = system: SK-MEL-5
# [47] = system: RPMI-8226
# [48] = system: CCRF-CEM
# [49] = system: RXF 631
# [50] = system: NCI-H226
# [51] = system: K562
# [52] = system: OVCAR-3
# [53] = system: NCI-H23
# [54] = system: SF-295
# [55] = system: HOP-92
# [56] = system: HT-29
# [57] = system: LOX IMVI
smiles,measurement,setting,value
O=C1CCCCC12CCC/C2=N\O (stereo not given),GI50,[1],> 100 µM (inactive)
same,GI50,[2],> 100 µM (inactive)
same,GI50,[3],> 100 µM (inactive)
same,GI50,[4],> 100 µM (inactive)
same,GI50,[5],> 100 µM (inactive)
same,GI50,[6],> 100 µM (inactive)
same,GI50,[7],> 100 µM (inactive)
same,GI50,[8],> 100 µM (inactive)
same,GI50,[9],> 100 µM (inactive)
same,GI50,[10],> 100 µM (inactive)
same,GI50,[11],> 100 µM (inactive)
same,GI50,[12],> 100 µM (inactive)
same,GI50,[13],> 100 µM (inactive)
same,GI50,[14],> 100 µM (inactive)
same,GI50,[15],> 100 µM (inactive)
same,GI50,[16],> 100 µM (inactive)
same,GI50,[17],> 100 µM (inactive)
same,GI50,[18],> 100 µM (inactive)
same,GI50,[19],> 100 µM (inactive)
same,GI50,[20],> 100 µM (inactive)
same,GI50,[21],> 100 µM (inactive)
same,GI50,[22],> 100 µM (inactive)
same,GI50,[23],> 100 µM (inactive)
same,GI50,[24],> 100 µM (inactive)
same,GI50,[25],> 100 µM (inactive)
same,GI50,[26],> 100 µM (inactive)
same,GI50,[27],> 100 µM (inactive)
same,GI50,[28],> 100 µM (inactive)
same,GI50,[29],> 100 µM (inactive)
same,GI50,[30],> 100 µM (inactive)
same,GI50,[31],> 100 µM (inactive)
same,GI50,[32],> 100 µM (inactive)
same,GI50,[33],> 100 µM
same,GI50,[34],> 100 µM (inactive)
same,GI50,[35],> 100 µM (inactive)
same,GI50,[36],> 100 µM (inactive)
same,GI50,[37],> 100 µM (inactive)
same,GI50,[38],> 100 µM (inactive)
same,GI50,[39],> 100 µM (inactive)
same,GI50,[40],> 100 µM (inactive)
same,GI50,[41],> 100 µM (inactive)
same,GI50,[42],> 100 µM (inactive)
same,GI50,[43],> 100 µM (inactive)
same,GI50,[44],> 100 µM (inactive)
same,GI50,[45],> 100 µM (inactive)
same,GI50,[46],> 100 µM (inactive)
same,GI50,[47],> 100 µM (inactive)
same,GI50,[48],> 100 µM (inactive)
same,GI50,[49],> 100 µM (inactive)
same,GI50,[50],> 100 µM (inactive)
same,GI50,[51],> 100 µM (inactive)
same,GI50,[52],> 100 µM (inactive)
COC12OCCN(C)C1=CC(=O)C1=NNC(C)C12 (stereo not given),GI50,[1],> 100 µM (inactive)
same,GI50,[2],> 100 µM (inactive)
same,GI50,[3],> 100 µM (inactive)
same,GI50,[53],> 100 µM (inactive)
same,GI50,[4],> 100 µM (inactive)
same,GI50,[5],> 100 µM (inactive)
same,GI50,[7],> 100 µM (inactive)
same,GI50,[8],> 100 µM (inactive)
same,GI50,[9],> 100 µM (inactive)
same,GI50,[12],> 100 µM (inactive)
same,GI50,[13],> 100 µM (inactive)
same,GI50,[14],> 100 µM (inactive)
same,GI50,[16],> 100 µM (inactive)
same,GI50,[17],> 100 µM (inactive)
same,GI50,[18],> 100 µM (inactive)
same,GI50,[20],> 100 µM (inactive)
same,GI50,[21],> 100 µM (inactive)
same,GI50,[22],> 100 µM (inactive)
same,GI50,[23],> 100 µM (inactive)
same,GI50,[24],> 100 µM (inactive)
same,GI50,[25],> 100 µM (inactive)
same,GI50,[26],> 100 µM (inactive)
same,GI50,[27],> 100 µM (inactive)
same,GI50,[28],> 100 µM (inactive)
same,GI50,[29],> 100 µM (inactive)
same,GI50,[30],> 100 µM (inactive)
same,GI50,[32],> 100 µM (inactive)
same,GI50,[54],> 100 µM (inactive)
same,GI50,[33],> 100 µM
same,GI50,[34],> 100 µM (inactive)
same,GI50,[36],> 100 µM (inactive)
same,GI50,[38],> 100 µM (inactive)
same,GI50,[39],> 100 µM (inactive)
same,GI50,[40],> 100 µM (inactive)
same,GI50,[55],> 100 µM (inactive)
same,GI50,[41],> 100 µM (inactive)
same,GI50,[42],> 100 µM (inactive)
same,GI50,[43],> 100 µM (inactive)
same,GI50,[56],> 100 µM (inactive)
same,GI50,[44],> 100 µM (inactive)
same,GI50,[57],> 100 µM (inactive)
same,GI50,[46],> 100 µM (inactive)
same,GI50,[47],> 100 µM (inactive)
same,GI50,[48],> 100 µM (inactive)
same,GI50,[49],> 100 µM (inactive)
same,GI50,[50],> 100 µM (inactive)
same,GI50,[51],> 100 µM (inactive)
same,GI50,[52],> 100 µM (inactive)
